Reference: patent US5707963A, “Methods of using growth inhibitory peptides” (Health Research, Incorporated, priority 1996, dated 1998)

B1: full-length transformed AFP molecule: full-length alpha-fetoprotein transformed by incubation with estradiol (E2) (protein, UniProt P02771 19-609, looked up)
Alpha-fetoprotein: RTLHRNEYGIASILDSYQCTAEISLADLATIFFAQFVQEATYKEVSKMVKDALTAIEKPTGDEQSSGCLENQLPAFLEELCHEKEILEKYGHSDCCSQSEEGRHNCFLAHKKPTPASIPLFQVPEPVTSCEAYEEDRETFMNKFIYEIARRHPFLYAPTILLWAARYDKIIPSCCKAENAVECFQTKAATVTKELRESSLLNQHACAVMKNFGTRTFQAITVTKLSQKFTKVNFTEIQKLVLDVAHVHEHCCRGDVLDCLQDGEKIMSYICSQQDTLSNKITECCKLTTLERGQCIIHAENDEKPEGLSPNLNRFLGDRDFNQFSSGEKNIFLASFVHEYSRRHPQLAVSVILRVAKGYQELLEKCFQTENPLECQDKGEEELQKYIQESQALAKRSCGLFQKLGEYYLQNAFLVAYTKKAPQLTSSELMAITRKMAATAATCCQLSEDKLLACGEGAADIIIGHLCIRHEMTPVNPGVGQCCTSSYANRRPCFSSLVVDETYVPPAFSDDKFIFHKDLCQAQGVALQTMKQEFLINLVKQKPQITEEQLEAVIADFSGLLEKCCQGQEQEVCFAEEGQKLISKTRAALGV
modifications: transformed by estradiol incubation

Assays:
[1] = system: estrogen-stimulated growth of mouse uterus; assay type: in vivo; details: immature mouse uterus, 10-100 ng per mouse, peak assay point of the dilution series
Protocol: An in vivo wet weight bioassay measuring inhibition of estrogen-stimulated growth of uteri was performed. The procedure of Mizejewski et al. was used for the wet weight assay (see Mizejewski, G. J. et al. (1983); Mizejewski, G. J. et al. (1986); Mizejewski, G. J. and A. S. Warner (1989); Mizejewski, G. J. et al., "Separation of the Estrogen-Activated Growth-Regulatory Forms of Alpha-Fetoprotein in Mouse Amniotic Fluid," Biol of Reprod 42:887-898 (1990); and Allen, S.H.G. et al. (1993)).
Briefly, the synthesized powdered peptide was reconstituted in saline (1 mg/ml) to form a stock solution of the GIP. The stock solution was appropriately diluted to provide dosages of 25 to 100 ng/mouse. 0.1 ml of the appropriately diluted GIP was injected intraperitoneally into 15-18 day old Nya:NYLAR female mice. Control mice were injected with saline or other peptides, including a peptide encoded by a portion of the amino acid sequence of albumin and a random 34 amino acid peptide. 1 hour after this first injection, an estrogen challenge of 0.5 micrograms of E2 in 0.1 ml saline was given to determine the change in uterine responsiveness to E2 resulting from exposure to the first injection. 23 hours after the second injection, uteri were dissected, trimmed free of connective tissue and immediately weighed. The uterine wet weights were normalized to mouse body weight (mg uterine weight/g of body weight) to compensate for differences in body weight among litters of the same age. Percent inhibition of estrogen-stimulated uterine growth was calculated as described by Mizejewski et al. (1983).
Two separate bioassays for inhibition of estrogen-stimulated growth were used. The first was an in vivo bioassay measuring an estrogen-induced increase in wet weight of the immature mouse uterus in a 24-hour determination. Dosages of peptide fragments ranged from 10 to 100 ng, and the %inhibition given in Table 6 represents the peak assay point of the dilution series.

[2] = transformed human AFP preparations
[3] = system: estrogen-stimulated growth of mouse uterus; details: full-length transformed AFP, see references cited; cited from earlier work

Row | Molecule | Percent Growth Inhibition [1] | time activity is retained [2] | inhibition of estrogen-stimulated growth [3]
1 | SEQ ID NO:5: 5' fragment generated by cutting the 34 amino acid peptide SEQ ID NO:1 with trypsin (HEMTPVNPGV) | 38% |  | 
2 | SEQ ID NO:7: 3' fragment generated by cutting SEQ ID NO:1 with trypsin; 5 amino acids in length (LSEDK) | no detectable growth inhibition |  | 
3 | B1 |  | one week or less | 20-40%
